# Reference: US20260183297A1, “SELECTION OF PATIENTS FOR THE TREATMENT OF FADS1-MEDIATED DISEASES OR DISORDERS USING FADS-1 INHIBITORS” (AMGEN INC., priority 2022, published 2026)
# Marks after values point to notes of the source that are not given here.
# Experiment: Fatty acid concentration and composition of plasma lipid subfractions (GC) of Compound A-treated DIO mice
# Format: in vivo, mouse
# Experimental: FIG. 16(b) provides fatty acid composition of total plasma and each of the 4 plasma lipid subfractions of vehicle treated (WT) and 30 mg/kg Compound A-treated WT DIO mice (WT+A). (a-b) n=3 samples per group (each sample pooled from 2 mice). (a) Data are shown as minimum to maximum. t-test *P<0.05, **P<0.01, ***P<0.001.
# [1] = DIO mouse plasma, Cholesterol ester, 30 mg/kg, GC, mean
# [2] = DIO mouse plasma, Cholesterol ester, 30 mg/kg, GC, mean % composition
# [3] = DIO mouse plasma, Free fatty acids, 30 mg/kg, GC, mean
# [4] = DIO mouse plasma, Free fatty acids, 30 mg/kg, GC, mean % composition
# [5] = DIO mouse plasma, Phospholipids, 30 mg/kg, GC, mean
# [6] = DIO mouse plasma, Phospholipids, 30 mg/kg, GC, mean % composition
compound,measurement,setting,value
"COc1ccn2c(=O)c(-c3cnn(CC(F)(F)C(F)(F)F)c3)c(C(F)(F)F)nc2c1 [Compound A, 8-methoxy-3-(1-(2,2,3,3,3-pentafluoropropyl)-1H-pyrazol-4-yl)-2-(trifluoromethyl)-4H-pyrido[1,2-a]pyrimidin-4-one]",EPA/AA ratio in all four lipid subfractions,"Compound A-treated DIO mice, plasma",increased
same,"C14:0 concentration, Cholesterol ester",[1],29.9 µg/mL
same,"C16:0 concentration, Cholesterol ester",[1],90.5 µg/mL
same,"C16:1n7 concentration, Cholesterol ester",[1],27.7 µg/mL
same,"C16:1n7t concentration, Cholesterol ester",[1],2.6 µg/mL
same,"C18:0 concentration, Cholesterol ester",[1],50.3 µg/mL
same,"C18:1n9 concentration, Cholesterol ester",[1],113 µg/mL
same,"C18:1t concentration, Cholesterol ester",[1],8.1 µg/mL
same,"C18:2n6 concentration, Cholesterol ester",[1],516 µg/mL
same,"C18:2n6t concentration, Cholesterol ester",[1],10.4* μg mL^−1
same,"C18:3n3 concentration, Cholesterol ester",[1],3.0 µg/mL
same,"C18:3n6 concentration, Cholesterol ester",[1],20.4* μg mL^−1
same,"C20:0 concentration, Cholesterol ester",[1],1.2 µg/mL
same,"C20:1n9 concentration, Cholesterol ester",[1],0.6 µg/mL
same,"C20:2n6 concentration, Cholesterol ester",[1],1.4 µg/mL
same,"C20:3n6 concentration, Cholesterol ester",[1],124*** μg mL^−1
same,"C20:5n3 concentration, Cholesterol ester",[1],2.8* μg mL^−1
same,"C22:0 concentration, Cholesterol ester",[1],1.3 µg/mL
same,"C22:4n6 concentration, Cholesterol ester",[1],1.5 µg/mL
same,"C22:5n3 concentration, Cholesterol ester",[1],31.0 µg/mL
same,"C22:5n6 concentration, Cholesterol ester",[1],1.7 µg/mL
same,"C22:6n3 concentration, Cholesterol ester",[1],37.4* μg mL^−1
same,"C24:0 concentration, Cholesterol ester",[1],1.2 µg/mL
same,"C24:1n9 concentration, Cholesterol ester",[1],2.6 µg/mL
same,"Total fatty acids concentration, Cholesterol ester",[1],1150* μg mL^−1
same,"C14:0 composition, Cholesterol ester",[2],2.61* %
same,"C16:0 composition, Cholesterol ester",[2],7.89*** %
same,"C16:1n7 composition, Cholesterol ester",[2],2.39* %
same,"C16:1n7t composition, Cholesterol ester",[2],0.23** %
same,"C18:0 composition, Cholesterol ester",[2],4.41* %
same,"C18:1n9 composition, Cholesterol ester",[2],9.73* %
same,"C18:1t composition, Cholesterol ester",[2],0.7*** %
same,"C18:2n6 composition, Cholesterol ester",[2],44.7*** %
same,"C18:2n6t composition, Cholesterol ester",[2],0.9*** %
same,"C18:3n3 composition, Cholesterol ester",[2],0.27%
same,"C18:3n6 composition, Cholesterol ester",[2],1.76*** %
same,"C20:0 composition, Cholesterol ester",[2],0.1%
same,"C20:1n9 composition, Cholesterol ester",[2],0.05%
same,"C20:2n6 composition, Cholesterol ester",[2],0.12%
same,"C20:3n6 composition, Cholesterol ester",[2],10.8*** %
same,"C20:4n6 composition, Cholesterol ester",[2],6.34*** %
same,"C20:5n3 composition, Cholesterol ester",[2],0.25%
same,"C22:0 composition, Cholesterol ester",[2],0.12%
same,"C22:4n6 composition, Cholesterol ester",[2],0.13%
same,"C22:5n3 composition, Cholesterol ester",[2],2.71* %
same,"C22:5n6 composition, Cholesterol ester",[2],0.14%
same,"C22:6n3 composition, Cholesterol ester",[2],3.26** %
same,"C24:0 composition, Cholesterol ester",[2],0.11%
same,"C24:1n9 composition, Cholesterol ester",[2],0.23%
same,"C14:0 concentration, Free fatty acids",[3],18.8 µg/mL
same,"C16:0 concentration, Free fatty acids",[3],132.7 µg/mL
same,"C16:1n7 concentration, Free fatty acids",[3],8.7 µg/mL
same,"C16:1n7t concentration, Free fatty acids",[3],0.5 µg/mL
same,"C18:0 concentration, Free fatty acids",[3],76.8 µg/mL
same,"C18:1n9 concentration, Free fatty acids",[3],98.1* μg mL^−1
same,"C18:1t concentration, Free fatty acids",[3],2.5 µg/mL
same,"C18:2n6 concentration, Free fatty acids",[3],38.5 µg/mL
same,"C18:2n6t concentration, Free fatty acids",[3],3.3 µg/mL
same,"C18:3n3 concentration, Free fatty acids",[3],1.6 µg/mL
same,"C18:3n6 concentration, Free fatty acids",[3],1.2 µg/mL
same,"C20:0 concentration, Free fatty acids",[3],1.8 µg/mL
same,"C20:1n9 concentration, Free fatty acids",[3],2.8 µg/mL
same,"C20:2n6 concentration, Free fatty acids",[3],1.1 µg/mL
same,"C20:3n6 concentration, Free fatty acids",[3],8.1** μg mL^−1
same,"C20:4n6 concentration, Free fatty acids",[3],2.9*** μg mL^−1
same,"C20:5n3 concentration, Free fatty acids",[3],8.3 µg/mL
same,"C22:0 concentration, Free fatty acids",[3],1.4 µg/mL
same,"C22:4n6 concentration, Free fatty acids",[3],1.1* μg mL^−1
same,"C22:5n3 concentration, Free fatty acids",[3],32.0 µg/mL
same,"C22:5n6 concentration, Free fatty acids",[3],0.4 µg/mL
same,"C22:6n3 concentration, Free fatty acids",[3],5.3 µg/mL
same,"C24:0 concentration, Free fatty acids",[3],1.0 µg/mL
same,"C24:1n9 concentration, Free fatty acids",[3],1.8 µg/mL
same,"Total fatty acids concentration, Free fatty acids",[3],451 µg/mL
same,"C14:0 composition, Free fatty acids",[4],4.15%
same,"C16:0 composition, Free fatty acids",[4],29.5%
same,"C16:1n7 composition, Free fatty acids",[4],1.91%
same,"C16:1n7t composition, Free fatty acids",[4],0.11%
same,"C18:0 composition, Free fatty acids",[4],17.1* %
same,"C18:1n9 composition, Free fatty acids",[4],21.8%
same,"C18:1t composition, Free fatty acids",[4],0.57%
same,"C18:2n6 composition, Free fatty acids",[4],8.61%
same,"C18:2n6t composition, Free fatty acids",[4],0.76%
same,"C18:3n3 composition, Free fatty acids",[4],0.34%
same,"C18:3n6 composition, Free fatty acids",[4],0.26* %
same,"C20:0 composition, Free fatty acids",[4],0.39%
same,"C20:1n9 composition, Free fatty acids",[4],0.61%
same,"C20:2n6 composition, Free fatty acids",[4],0.25%
same,"C20:3n6 composition, Free fatty acids",[4],1.82%
same,"C20:4n6 composition, Free fatty acids",[4],0.64*** %
same,"C20:5n3 composition, Free fatty acids",[4],1.75%
same,"C22:0 composition, Free fatty acids",[4],0.31%
same,"C22:4n6 composition, Free fatty acids",[4],0.25* %
same,"C22:5n3 composition, Free fatty acids",[4],7.14%
same,"C22:5n6 composition, Free fatty acids",[4],0.10%
same,"C22:6n3 composition, Free fatty acids",[4],1.15%
same,"C24:0 composition, Free fatty acids",[4],0.22%
same,"C24:1n9 composition, Free fatty acids",[4],0.39%
same,"C14:0 concentration, Phospholipids",[5],5.3 µg/mL
same,"C16:0 concentration, Phospholipids",[5],591 µg/mL
same,"C16:1n7 concentration, Phospholipids",[5],7.7 µg/mL
same,"C18:0 concentration, Phospholipids",[5],302*** μg mL^−1
same,"C18:1n9 concentration, Phospholipids",[5],260 µg/mL
same,"C18:1t concentration, Phospholipids",[5],3.9 µg/mL
same,"C18:2n6 concentration, Phospholipids",[5],400** μg mL^−1
same,"C18:2n6t concentration, Phospholipids",[5],4.5 µg/mL
same,"C18:3n3 concentration, Phospholipids",[5],1.0 µg/mL
same,"C18:3n6 concentration, Phospholipids",[5],4.3 µg/mL
same,"C20:0 concentration, Phospholipids",[5],1.4** μg mL^−1
same,"C20:1n9 concentration, Phospholipids",[5],5.8 µg/mL
same,"C20:2n6 concentration, Phospholipids",[5],9.0 µg/mL
same,"C20:3n6 concentration, Phospholipids",[5],382*** μg mL^−1
same,"C20:4n6 concentration, Phospholipids",[5],31.2*** μg mL^−1
same,"C20:5n3 concentration, Phospholipids",[5],1.2* μg mL^−1
same,"C22:0 concentration, Phospholipids",[5],1.8 µg/mL
same,"C22:4n6 concentration, Phospholipids",[5],2.1*** μg mL^−1
same,"C22:5n3 concentration, Phospholipids",[5],12.8 µg/mL
same,"C22:5n6 concentration, Phospholipids",[5],1.8*** μg mL^−1
same,"C22:6n3 concentration, Phospholipids",[5],70.2** μg mL^−1
same,"C24:0 concentration, Phospholipids",[5],1.0 µg/mL
same,"C24:1n9 concentration, Phospholipids",[5],3.3 µg/mL
same,"Total fatty acids concentration, Phospholipids",[5],2105* μg mL^−1
same,"C14:0 composition, Phospholipids",[6],0.25* %
same,"C16:0 composition, Phospholipids",[6],28.1** %
same,"C16:1n7 composition, Phospholipids",[6],0.36** %
